Literature values, collected in patent US9161929B2, “Solvent cast film sustained release latanoprost implant” (ALLERGAN, INC., priority 2011, dated 2015).

solubility in acetone, ethanol, ethyl acetate, isopropanol, methanol and octanol: freely soluble
SMILES: CC(C)OC(=O)CCC/C=C\C[C@@H]1[C@@H](CC[C@@H](O)CCc2ccccc2)[C@H](O)C[C@@H]1O [Latanoprost]
